Experimental data taken from ChEMBL document CHEMBL5370556, “Optimization, and biological evaluation of 3-O-β-chacotriosyl betulinic acid amide derivatives as novel small-molecule Omicron” (Eur J Med Chem, 2023).
Active and inactive are the calls of the source. The calls are words filed in the database; no cut-off is given here.

How the values were obtained:
SARS-CoV-2 [1] = assay: Antiviral activity against luciferase-expressing pseudovirus encoding SARS-CoV-2 Omicron expressing S protein infected in human 293T/ACE2 cells assessed as reduction of viral growth measured after 48 hrs by luciferase assay; format: functional, organism-based; conditions: Severe acute respiratory syndrome coronavirus 2, 293T/ACE2, 48 h
[2] = Cytotoxicity against human 293T/ACE2 cells assessed as reduction in cell growth measured after 48 hrs by MTT assay; format: functional
[3] = Selectivity index, ratio of CC50 for human 293T/ACE2 cells to EC50 for SARS-CoV-2 Omicron; format: toxicity; conditions: read-out: Ratio CC50/EC50
[4] = target: Spike glycoprotein/Angiotensin-converting enzyme 2 (Severe acute respiratory syndrome coronavirus 2) (UniProt Q9BYF1+P0DTC2); assay: Inhibition of SARS-COV-2 S1 protein/human ACE2 receptor interaction at 20 uM by co-immunoprecipitation assay
SARS-CoV-2 [5] = assay: Antiviral activity against luciferase-expressing pseudovirus encoding SARS-CoV-2 Omicron expressing S protein infected in human 293T/ACE2 cells assessed as reduction of viral growth at 0.078 to 10 uM measured after 48 hrs by luciferase assay; format: functional, organism-based; conditions: Severe acute respiratory syndrome coronavirus 2, dose 0.078-10 µM
SARS-CoV-2 [6] = assay: Antiviral activity against vesicular stomatitis virus glycoprotein expressing pseudovirus encoding SARS-CoV-2 infected in human 293T/ACE2 cells assessed as reduction of viral growth at 0.078 to 10 uM measured after 48 hrs by luciferase assay; format: functional, organism-based; conditions: Severe acute respiratory syndrome coronavirus 2, dose 0.078-10 µM
Spike glycoprotein = Spike glycoprotein (Severe acute respiratory syndrome coronavirus 2, UniProt P0DTC2); assay: Binding affinity to C-terminal 6His-tagged SARS-COV-2 recombinant S protein (Val16 to Arg685 residues) expressed in mammalian expression system assessed as dissociation constant by SPR analysis
SARS-CoV-2 [7] = assay: Antiviral activity against luciferase-expressing pseudovirus encoding SARS-CoV-2 Omicron S/HIV infected in human 293T/ACE2 cells assessed as reduction of viral growth at 10 uM measured after 48 hrs by luciferase assay relative to control; format: functional, Severe acute respiratory syndrome coronavirus 2; parameters: scale not given: the % may be the effect or the level left
SARS-CoV-2 [8] = assay: Antiviral activity against SARS-COV-2 Omicron expressing S protein and co-expressing EGFP infected in African green monkey Vero E6 cells assessed as inhibition of S protein mediated membrane fusion at 10 uM incubated of 30 mins measured after 24 hrs by inverted fluorescence microscopic analysis; format: functional, organism-based; conditions: Severe acute respiratory syndrome coronavirus 2, time 24.5 hrs
[9] = Stability of compound in rat plasma assessed as change in retention time of parent compound incubated for 180 mins by LC-MS/MS analysis; format: ADME, cell-free; conditions: 3 h
[10] = Metabolic stability in rat liver microsomes assessed as half life measured upto 250 mins by LC-MS/MS analysis; format: ADME, Microsome; conditions: 4.167 h
[11] = Metabolic stability in rat liver microsomes assessed as intrinsic clearance measured upto 250 mins by LC-MS/MS analysis; format: ADME, Microsome; conditions: 4.167 h
[12] = test system: Severe acute respiratory syndrome coronavirus 2; assay: Inhibition of 6-helical bundle formation in SARS-CoV-2 Spike protein HR1/HR2 domains in presence of HR-1P and HR2P at 20 uM incubated for 30 mins by circular dichroism spectroscopy assay

| SMILES | EC50 (SARS-CoV-2 [1]) [µM] | CC50 [2] [µM] | selectivity ratio [3] | inhibition [4] | further results |
| --- | --- | --- | --- | --- | --- |
| C=C(C)[C@@H]1CC[C@]2(C(=O)NCc3ccc4ccccc4c3)CC[C@]3(C)[C@H](CC[C@@H]4[C@@]5(C)CC[C@H](O[C@@H]6O[C@H](CO)[C@@H](O[C@@H]7O[C@@H](C)[C@H](O)[C@@H](O)[C@H]7O)[C@H](O)[C@H]6O[C@@H]6O[C@@H](C)[C@H](O)[C@@H](O)[C@H]6O)C(C)(C)[C@@H]5CC[C@]43C)[C@@H]12 | 2.67 | 167 | 62.7 | inactive | – |
| C=C(C)[C@@H]1CC[C@]2(C(=O)NCc3ccccc3)CC[C@]3(C)[C@H](CC[C@@H]4[C@@]5(C)CC[C@H](O[C@@H]6O[C@H](CO)[C@@H](O[C@@H]7O[C@@H](C)[C@H](O)[C@@H](O)[C@H]7O)[C@H](O)[C@H]6O[C@@H]6O[C@@H](C)[C@H](O)[C@@H](O)[C@H]6O)C(C)(C)[C@@H]5CC[C@]43C)[C@@H]12 | 5.52 | 248 | 44.9 | – | – |
| C=C(C)[C@@H]1CC[C@]2(C(=O)Nc3cccc(Cl)c3)CC[C@]3(C)[C@H](CC[C@@H]4[C@@]5(C)CC[C@H](O[C@@H]6O[C@H](CO)[C@@H](O[C@@H]7O[C@@H](C)[C@H](O)[C@@H](O)[C@H]7O)[C@H](O)[C@H]6O[C@@H]6O[C@@H](C)[C@H](O)[C@@H](O)[C@H]6O)C(C)(C)[C@@H]5CC[C@]43C)[C@@H]12 | 6.63 | 56.4 | 8.51 | – | – |
| C=C(C)[C@@H]1CC[C@]2(C(=O)Nc3ccccc3)CC[C@]3(C)[C@H](CC[C@@H]4[C@@]5(C)CC[C@H](O[C@@H]6O[C@H](CO)[C@@H](O[C@@H]7O[C@@H](C)[C@H](O)[C@@H](O)[C@H]7O)[C@H](O)[C@H]6O[C@@H]6O[C@@H](C)[C@H](O)[C@@H](O)[C@H]6O)C(C)(C)[C@@H]5CC[C@]43C)[C@@H]12 | 12.5 | > 200 | > 16 | inactive | – |
| O=C(/C=C/c1ccc(O)c2oc(-c3ccc(O)c(O)c3)cc12)O[C@H](Cc1ccc(O)c(O)c1)C(=O)O | 5.63 | > 100 | > 17.8 | – | – |
| C=C(C)[C@@H]1CC[C@]2(C(=O)Nc3ccc4ccccc4c3)CC[C@]3(C)[C@H](CC[C@@H]4[C@@]5(C)CC[C@H](O[C@@H]6O[C@H](CO)[C@@H](O[C@@H]7O[C@@H](C)[C@H](O)[C@@H](O)[C@H]7O)[C@H](O)[C@H]6O[C@@H]6O[C@@H](C)[C@H](O)[C@@H](O)[C@H]6O)C(C)(C)[C@@H]5CC[C@]43C)[C@@H]12 | 0.82 | 60.3 | 73.6 | inactive | Activity (SARS-CoV-2 [5]): Dose-Dependent Effect; Activity (SARS-CoV-2 [6]): inactive; Kd (Spike glycoprotein): 3.26 µM; Activity (SARS-CoV-2 [7]): 90%; Activity (SARS-CoV-2 [8]): Active; Stability [9]: Stable; t1/2 [10]: 2.8202 h; CLH [11]: 1.15 µL/min/mg; inhibition [12]: inactive |
| C=C(C)[C@@H]1CC[C@]2(C(=O)N(C)c3ccccc3)CC[C@]3(C)[C@H](CC[C@@H]4[C@@]5(C)CC[C@H](O[C@@H]6O[C@H](CO)[C@@H](O[C@@H]7O[C@@H](C)[C@H](O)[C@@H](O)[C@H]7O)[C@H](O)[C@H]6O[C@@H]6O[C@@H](C)[C@H](O)[C@@H](O)[C@H]6O)C(C)(C)[C@@H]5CC[C@]43C)[C@@H]12 | 5.06 | 69.5 | 13.7 | – | – |
| C=C(C)[C@@H]1CC[C@]2(C(=O)Nc3ccc4ncccc4c3)CC[C@]3(C)[C@H](CC[C@@H]4[C@@]5(C)CC[C@H](O[C@@H]6O[C@H](CO)[C@@H](O[C@@H]7O[C@@H](C)[C@H](O)[C@@H](O)[C@H]7O)[C@H](O)[C@H]6O[C@@H]6O[C@@H](C)[C@H](O)[C@@H](O)[C@H]6O)C(C)(C)[C@@H]5CC[C@]43C)[C@@H]12 | 8.43 | 69.6 | 8.25 | – | – |
| C=C(C)[C@@H]1CC[C@]2(C(=O)Nc3ccccc3Cl)CC[C@]3(C)[C@H](CC[C@@H]4[C@@]5(C)CC[C@H](O[C@@H]6O[C@H](CO)[C@@H](O[C@@H]7O[C@@H](C)[C@H](O)[C@@H](O)[C@H]7O)[C@H](O)[C@H]6O[C@@H]6O[C@@H](C)[C@H](O)[C@@H](O)[C@H]6O)C(C)(C)[C@@H]5CC[C@]43C)[C@@H]12 | 5.41 | 47.1 | 8.7 | – | – |
